Data reported in patent US6020328A, “20-keto-11β-arylsteroids and their derivatives having agonist or antagonist hormonal properties” (Research Triangle Institute, priority 1998, dated 2000).
Several values for one entry are separate records, joined by “and”; a condition that tells them apart may be missing. Equal values may be shown once.

Tests used:
rabbits [1] = experiment: anti-McGinty test (antagonist, test compound plus progesterone); assay type: in vivo, rabbit
Method: (§2) Progestational activity and antiprogestational activity were determined in rabbits by means of the McGinty test (test compound alone, procedure of McGinty et al., Endocrinology, 24:829-832 (1939)) or anti-McGinty test (test compound plus progesterone, procedure of Tamara et al., Jpn. J. Fertil. Steril. 24:48-81 (1979)). Results were scored according to McPhail (McPhail, J. Physiol., 83:146 (1934)).

Human T-47D breast cells [2] = experiment: T-47D cell proliferation, antagonist format (inhibition of 0.15 nM R5020-mediated proliferation); assay type: cell-based; details: T47D; for EC50: inhibition of 0.15 nM R5020-mediated proliferation, N.D. not detected; for Emax: maximum % inhibition, 0.15 nM R5020, read-out: Cell Proliferation Antagonist maximum % Inhib.
Method: (§1) Human T-47D breast cells grown in nutrient media were incubated with the standard progestin R5020 alone or with R5020 plus test compound and then assessed by standard procedures for proliferation using incorporation of [^3 H]-thymidine as the measurement. […] The maximum % inhibition (a measure of the efficacy of the compounds) is also given. In the agonist format of this assay the compounds were tested at concentrations ranging from 0.01 to 10 nM and the maximum % stimulation at any dose is listed in Table 2. […] However, the presence of a very polar hydroxyl group in the 17α-position greatly diminishes antiprogestational activity and this holds even when the OH is separated from the 17-carbon atom by a methylene group.

Human T-47D breast cells [3] = experiment: T-47D cell proliferation, agonist format; assay type: cell-based; details: T47D, 0.01 to 10 nM, maximum at any dose, read-out: Cell Proliferation Agonist maximum % Stim.
Method: as §1

progestin receptor (hPR) = experiment: progestin receptor binding; details: cytosol from human T-47D breast cells; [3H]-R5020; read-out: Receptor Binding Affinity hPR IC50
Excerpt: However, the receptors were of human origin and a different radioligand was used. Thus, for progestin receptor binding the receptor was obtained in cytosol from human T-47D breast cells and [^3 H]-R5020 was used as the radioligand. Data are expressed as IC50 values, i.e., the concentration of compound that inhibits the radioligand binding by 50%.

rabbits [4] = experiment: McGinty test (agonist, test compound alone); assay type: in vivo, rabbit
Method: as §2

Compound	McPhail Index, McGinty Assay (Antagonist) (rabbits [1]; rabbit, in vivo)	EC50 (Human T-47D breast cells [2]) [nM]	Emax (Human T-47D breast cells [2]) [%]	Emax (Human T-47D breast cells [3]) [%]	IC50 (progestin receptor (hPR)) [nM]	McPhail Index, McGinty Assay (Agonist) (rabbits [4]; dose 0.3 micrograms)	McPhail Index, McGinty Assay (Agonist) (rabbits [4]; dose 3 micrograms)	McPhail Index, McGinty Assay (Agonist) (rabbits [4]; dose 30 micrograms)	McPhail Index, McGinty Assay (Antagonist), progesterone (Standard) (rabbits [1]; progesterone standard, printed under first dose column, own dose not stated)	McPhail Index, McGinty Assay (Agonist), progesterone (rabbits [4]; progesterone control, printed under first dose column, own dose not stated)	McPhail Index, McGinty Assay (Antagonist) (rabbits [1]; dose 0.3 micrograms, plus progesterone)	McPhail Index, McGinty Assay (Antagonist) (rabbits [1]; dose 3 micrograms, plus progesterone)	McPhail Index, McGinty Assay (Antagonist) (rabbits [1]; dose 30 micrograms, plus progesterone)
CC(=O)OC[C@]1(C(C)=O)CC[C@H]2[C@@H]3CCC4=CC(=O)CCC4=C3[C@@H](c3ccc(N(C)C)cc3)C[C@@]21C [I 4-Me2 N H O H CH2 --O--CO--CH3 H]	3.4 +/- 0.1 and 2.6 +/- 0.2 and 2.0 +/- 0.2	8.9	92	20	10.6	0 +/- 0	0.6 +/- 0.2	1.0 +/- 0.1	–	–	–	–	–
CC(=O)O[C@]1(C(C)=O)CC[C@H]2[C@@H]3CCC4=CC(=O)CCC4=C3[C@@H](c3ccc(N(C)C)nc3)C[C@@]21C [17α-Acetoxy-11β-[2-(N,N-dimethylamino)pyrid-5-yl]-19-norpregna-4,9-diene-3,20-dione]	–	2.9	92	5	11	0 +/- 0	0 +/- 0	0 +/- 0	–	–	–	–	–
CC(=O)[C@H]1CC[C@H]2[C@@H]3CCC4=CC(=O)CC[C@]4(C)[C@H]3CC[C@]12C [Progesterone, reference compound]	–	–	–	–	3.3	–	–	–	2.45 +/- 0.14	2.45 +/- 0.14	–	–	–
C#C[C@]1(C(C)=O)CC[C@H]2[C@@H]3CCC4=CC(=O)CCC4=C3[C@@H](c3ccc(N(C)C)cc3)C[C@@]21C [I 4-Me2 N H O H --CCH H, 11β-(4-(N,N-Dimethylamino)phenyl)-17α-ethynyl-19-norpregna-4,9-diene-3,20-dione]	–	0.4	101	12	2.5	0.1 +/- 0.1	0.2 +/- 0.2	0.2 +/- 0.2	–	–	–	–	–
COC[C@]1(C(C)=O)CC[C@H]2[C@@H]3CCC4=CC(=O)CCC4=C3[C@@H](c3ccc(N(C)C)cc3)C[C@@]21C [I 4-Me2 N H O H --CH2 OCH3 H, 11β-(4-(N,N-dimethylamino)phenyl)-17α-methoxymethyl-19-norpregna-4,9-diene-3,20-dione]	3.2 +/- 0.1 and 1.7 +/- 0.8 and 1.7 +/- 0.3	0.3	106	12	3.2	1.3 +/- 0.5	1.8 +/- 0.6	1.3 +/- 0.8	–	–	–	–	–
CCC(=O)O[C@]1(C(C)=O)CC[C@H]2[C@@H]3CCC4=CC(=O)CCC4=C3[C@@H](c3ccc(N(C)C)cc3)C[C@@]21C [I 4-Me2 N H O H --O--CO--C2 H5 H, 11β-[4-(N,N-dimethylamino)phenyl]-17α-propionyloxy-19-norpregna-4,9-diene-3,10-dione]	–	0.4	110	4	1.3	0 +/- 0	0 +/- 0	0 +/- 0	–	–	–	–	–
CC(=O)[C@@]1(O)CC[C@H]2[C@@H]3CCC4=CC(=O)CCC4=C3[C@@H](c3ccc(N(C)C)cc3)C[C@@]21C [I 4-Me2 N H O H --OH H]	–	–	29	4	26	0 +/- 0	0 +/- 0	0 +/- 0	–	–	2.8 +/- 0	2.4 +/- 0.4	2.1 +/- 0.4
CC(=O)[C@@]1(CO)CC[C@H]2[C@@H]3CCC4=CC(=O)CCC4=C3[C@@H](c3ccc(N(C)C)cc3)C[C@@]21C [I 4-Me2 N H O H --CH2 --OH H, 11β-(4-(N,N-dimethylamino)phenyl)-17α-hydroxymethyl-19-norpregna-4,9-diene-3,20-dione]	2.9 +/- 0.5 and 2.8 +/- 0.2 and 2.7 +/- 0.2	–	23	11	43.6	0 +/- 0	0 +/- 0	0 +/- 0	–	–	–	–	–
CC(=O)O[C@]1(C(C)=O)CC[C@H]2[C@@H]3CCC4=CC(=O)CCC4=C3[C@@H](c3ccc(N(C)C)c(F)c3)C[C@@]21C [I 4-Me2 N 3-F O H --O--CO--CH3 H, 17α-Acetoxy-11β-(4-N,N-Dimethylamino-3-fluorophenyl)-19-norpregna4,9-diene-3,20-dione]	3.6 +/- 0.1 and 3.3 +/- 0.3 and 2.8 +/- 0.3	0.7	101	30	2.2	2.5 +/- 0.2	3.0 +/- 0.3	3.6 +/- 0.1	–	–	–	–	–
CC[C@]1(C(C)=O)CC[C@H]2[C@@H]3CCC4=CC(=O)CCC4=C3[C@@H](c3ccc(N(C)C)cc3)C[C@@]21C [I 4-Me2 N H O H C2 H5 H, 11β-[4-(N,N-dimethylamino)phenyl]-17α-ethyl-19-norpregna-4,9-diene-3,20-dione]	–	0.3	110	8	0.6	0.2 +/- 0.1	0.3 +/- 0.2	0.3 +/- 0.26	–	–	–	–	–
CCC(=O)O[C@]1(C(C)=O)CC[C@H]2[C@@H]3CCC4=CC(=O)CCC4=C3[C@@H](c3ccc(N4CCCC4)cc3)C[C@@]21C [17α-Propionyloxy-11β-[4-(N-pyrrolidino)phenyl-19-norpregna-4,9-diene-3-20-dione]	–	0.9	107	-1	4.8	0 +/- 0	0 +/- 0	0.1 +/- 0.1	–	–	–	–	–
CC(=O)[C@@]1(OC(=O)c2ccccc2)CC[C@H]2[C@@H]3CCC4=CC(=O)CCC4=C3[C@@H](c3ccc(N(C)C)cc3)C[C@@]21C [I 4-Me2 N H O H --O--CO--C6 H5 H, 11β-[4-(N,N-Dimethylamino)phenyl]-17α-benzoyloxy-19-norpregna-4,9-diene-3,20-dione]	–	6.4	69	18	24	0 +/- 0	0 +/- 0	0 +/- 0	–	–	–	–	–
COC(=O)[C@]1(C(C)=O)CC[C@H]2[C@@H]3CCC4=CC(=O)CCC4=C3[C@@H](c3ccc(N(C)C)cc3)C[C@@]21C [I 4-Me2 N H O H COOCH3 H, 17α-carbomethoxy-11β-(4-(N,N-dimethylamino)phenyl)-19-norpregna-4,9-diene-3,20-dione]	–	0.4	92	24	0.7	0 +/- 0	0 +/- 0	0.07 +/- 0.07	–	–	–	–	–
CCC(=O)O[C@]1(C(C)=O)CC[C@H]2[C@@H]3CCC4=CC(=O)CCC4=C3[C@@H](c3ccc(N4CCCCC4)cc3)C[C@@]21C [11β-(4-(N-piperidino)phenyl)-17α-propionyloxy-19-norpregna-4,9-diene-3,20-dione]	–	1	111	-16	2	0 +/- 0	0 +/- 0	0 +/- 0	–	–	–	–	–
CCC(=O)O[C@]1(C(C)=O)CC[C@H]2[C@@H]3CCC4=CC(=O)CCC4=C3[C@@H](c3ccc4c(ccn4C)c3)C[C@@]21C [11β-(1-Methylindol-5-yl)-17α-propionyloxy-19-norpregna-4,9-diene-3,20-dione]	–	2.4	107	7	2.3	0 +/- 0	0 +/- 0	0 +/- 0	–	–	–	–	–
CC(=O)O[C@]1(C(C)=O)CC[C@H]2[C@@H]3CCC4=CC(=O)CCC4=C3[C@@H](c3ccc4c(c3)CCN4C)C[C@@]21C [17α-Acetoxy-11β-(1-methyl-2,3-dihydroindol-5-yl)-19-norpregna-4,9-diene-3,20-dione]	–	1.5	103	6	2	0.6 +/- 0.1	0.2 +/- 0.1	0.2 +/- 0.1	–	–	–	–	–
CC(=O)[C@@]1(OC(=O)Cc2ccccc2)CC[C@H]2[C@@H]3CCC4=CC(=O)CCC4=C3[C@@H](c3ccc(N(C)C)cc3)C[C@@]21C [I 4-Me2 N H O H O--CO--CH2 C6 H5 H, 11β-[4-(N,N-Dimethylamino)phenyl]-17α-phenylacetoxy-19-norpregna-4,9-diene-3,20-dione]	–	1.9	99	16	7.9	–	–	–	–	–	–	–	–
